From patent publication US8969554B2, “6-acyl-1,2,4-triazine-3,5-dione derivative and herbicides” (Kumiai Chemical Industry Co., Ltd., priority 2010, dated 2015) come the findings set out here.

What all share (format): in vivo
Set-up in all cases: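 index 0 to 10 in 10% steps of herbicidal effect with 10 meaning complete death and 0 below 10%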

For one experiment, the system named is Echinochloa oryzicola. The experiment in a line: Herbicidal activity by paddy field soil treatment (Test Example 1). The following applies: 1000 g of effective component per hectare, evaluated on day 21 after the treatment, criteria of Table 72. The method, then:
(§1) Test for Determining Herbicidal Activity by Paddy Field Soil Treatment A 100 cm^2 wide plastic pot was filled with a paddy field soil and, after watering and shuffling, seeds of each of Echinochloa oryzicola, Monochoria vaginalis, and Scirpus juncoides Rocxb. were sowed and watered to a depth of 3 cm. On the next day, the wettable powder obtained in view of Formulation example 1 was diluted with water and applied on water surface. The application amount was 1000 g of effective component per hectare. After that, the plants were cultivated in a greenhouse, and on day 21 after the treatment, evaluation was made by the criteria of Table 72 for determining the herbicidal effects. [table]

In another experiment the test system is Monochoria vaginalis. The experiment is described as above. Conditions: 1000 g of effective component per hectare, evaluated on day 21 after the treatment, criteria of Table 72. The method, then: as §1
In a further experiment the test system is Scirpus juncoides Rocxb. Described as above. Conditions: applied on water surface, 1000 g of effective component per hectare, day 21 after the treatment. The method, then:
as §1

Experiment [1] concerns A. retroflexus. The experiment in a line: Herbicidal activity by field soil treatment (Test example 2). The following applies: 1000 g effective component per hectare, day 21 after the treatment. The method, then: (§2) [table] Test for Determining Herbicidal Activity by Field Soil Treatment A 80 cm^2 wide plastic pot was filled with a field soil and seeds of each of Echinochloa crus-galli, foxtail, Indian millet, and A. retroflexus were sowed and then covered with soil. The wettable powder produced with reference to the Formulation example 1 was diluted water, and applied on the soil surface by using a small sprayer in an amount of 1000 liters per hectare so that the effective component is 1000 g per hectare. After that, the plants were cultivated in a greenhouse, and on day 21 after the treatment, evaluation was made by the criteria described in Table 72 for determining the herbicidal effects.

Experiment [2] concerns Echinochloa crus-galli. The experiment is described as above. Conditions: 1000 g effective component per hectare, day 21 after the treatment. The method, then: as §2
For experiment [3], the system named is A. retroflexus. The experiment in a line: Herbicidal activity by field foliage treatment (Test example 3). Conditions: 1000 g effective component per hectare, day 14 after the treatment. The method, then: (§3) [table] Test for Determining Herbicidal Activity by Field Foliage Treatment A 80 cm^2 wide plastic pot was filled with a field soil and seeds of each of Indian millet and A. retroflexus were sowed and then incubated for 2 weeks in a green house. The wettable powder produced with reference to the Formulation example 1 was diluted water, and applied from the air to entire body of the plant as foliage treatment by using a small sprayer in an amount of 1000 liters per hectare so that the effective component is 1000 g per hectare. After that, the plants were cultivated in a greenhouse, and on day 14 after the treatment, evaluation was made by the criteria described in Table 72 for determining the herbicidal effects.

The subject of experiment [4] is Indian millet. The experiment is described as above. The following applies: 1000 g effective component per hectare, day 14 after the treatment. Here is the method:
as §3

The test system of experiment [5] is Echinochloa crus-galli. The experiment is described as above. The following applies: 1000 g effective component per hectare, day 14 after the treatment. Here is the method: as §3, with “Test example 3” for “[table]”
In experiment [6] the test system is Indian millet. The experiment in a line: Herbicidal activity by field soil treatment (Test example 2). Conditions: 1000 g effective component per hectare, day 21 after the treatment. The method, then:
as §2

Regarding `CCCCCCn1c(=O)c(C(=O)C2=C(O)CCCC2=O)nn(C)c1=O` [I-9], the “Herbicidal effects index number, Echinochloa oryzicola” value with Echinochloa oryzicola is given as 8. Besides, in the experiment with Monochoria vaginalis, the “Herbicidal effects index number, Monochoria vaginalis” value came out at 8. Also, the “herbicidal effect index, S. juncoides Rocxb.” value in the experiment on Scirpus juncoides Rocxb. was determined as 8. The “herbicidal effect index, Amaranthus retroflexus” value in the experiment with A. retroflexus [1] and in the experiment on A. retroflexus [3] was 10 each time. Further, the results for the “herbicidal effect index, Echinochloa crus-galli” value in the experiment on Echinochloa crus-galli [2] and with Echinochloa crus-galli [5] were 7 and 10, respectively. Besides, the “herbicidal effect index, Abutilon theophrasti” value in the experiment on Indian millet [4] was found to be 10.

`Cc1ccc(-n2c(=O)c(C(=O)C3=C(O)CCCC3=O)nn(C)c2=O)cc1` [I-59]: in the experiment on Echinochloa oryzicola, the “Herbicidal effects index number, Echinochloa oryzicola” value came to 10. Moreover, in the experiment with Monochoria vaginalis, the “Herbicidal effects index number, Monochoria vaginalis” value is 10. The “herbicidal effect index, S. juncoides Rocxb.” value with Scirpus juncoides Rocxb. is 10. Besides, the “herbicidal effect index, Amaranthus retroflexus” value with A. retroflexus [1] and in the experiment on A. retroflexus [3] was 10 throughout. For the same compound, the “herbicidal effect index, Abutilon theophrasti” value in the experiment with Indian millet [6] and in the experiment on Indian millet [4] was 10 each time. Moreover, the “herbicidal effect index, Echinochloa crus-galli” value in the experiment with Echinochloa crus-galli [5] is recorded as 7.

Take `COc1ccc(-n2c(=O)c(C(=O)C3=C(O)CCCC3=O)nn(C)c2=O)c(OC)c1` [I-96]: the “Herbicidal effects index number, Echinochloa oryzicola” value with Echinochloa oryzicola amounted to 8. The “Herbicidal effects index number, Monochoria vaginalis” value in the experiment on Monochoria vaginalis was 10. In addition, the “herbicidal effect index, S. juncoides Rocxb.” value with Scirpus juncoides Rocxb. amounted to 10. Also, the “herbicidal effect index, Amaranthus retroflexus” value with A. retroflexus [1] and in the experiment with A. retroflexus [3] was 10 throughout. Further, the “herbicidal effect index, Abutilon theophrasti” value with Indian millet [6] came to 10; in the experiment with Indian millet [4], 9. Moreover, the “herbicidal effect index, Echinochloa crus-galli” value with Echinochloa crus-galli [5] is 7.

For the compound `Cc1ccc(-n2c(=O)c(C(=O)C3=C(O)CCCC3=O)nn(C)c2=O)c(F)c1` [I-108], in the experiment with Echinochloa oryzicola, the “Herbicidal effects index number, Echinochloa oryzicola” value stood at 10. For the same compound, in the experiment with Monochoria vaginalis, the “Herbicidal effects index number, Monochoria vaginalis” value was 10. In addition, the “herbicidal effect index, S. juncoides Rocxb.” value with Scirpus juncoides Rocxb. came out at 10. The “herbicidal effect index, Amaranthus retroflexus” value in the experiment on A. retroflexus [1] and in the experiment with A. retroflexus [3] was 10 each time. The “herbicidal effect index, Abutilon theophrasti” value worked out at 8 in the experiment with Indian millet [6] and 9 with Indian millet [4].

For the compound `Cn1nc(C(=O)C2=C(O)CCCC2=O)c(=O)n(-c2ccc3c(c2)OCO3)c1=O` [I-170], the “Herbicidal effects index number, Echinochloa oryzicola” value with Echinochloa oryzicola turned out to be 10. Besides, the “Herbicidal effects index number, Monochoria vaginalis” value in the experiment on Monochoria vaginalis stood at 10. Besides, the “herbicidal effect index, S. juncoides Rocxb.” value in the experiment on Scirpus juncoides Rocxb. came out at 10. For the same compound, the “herbicidal effect index, Amaranthus retroflexus” value in the experiment on A. retroflexus [1] and in the experiment on A. retroflexus [3] was 10 each time. Further, the “herbicidal effect index, Abutilon theophrasti” value with Indian millet [6] and in the experiment with Indian millet [4] was 10 each time. Besides, in the experiment with Echinochloa crus-galli [5], the “herbicidal effect index, Echinochloa crus-galli” value was 10.

Consider `Cc1cc(-n2c(=O)c(C(=O)C3=C(O)CCCC3=O)nn(C)c2=O)no1` [I-189], for which the “Herbicidal effects index number, Monochoria vaginalis” value in the experiment on Monochoria vaginalis was 10. Besides, in the experiment on Scirpus juncoides Rocxb., the “herbicidal effect index, S. juncoides Rocxb.” value stood at 10. Also, the “herbicidal effect index, Amaranthus retroflexus” value with A. retroflexus [1] and with A. retroflexus [3] was 10 each time. Also, the “herbicidal effect index, Abutilon theophrasti” value came out at 10 with Indian millet [6] and 9 with Indian millet [4].

Turning to `Cn1nc(C(=O)C2=C(O)CCCC2=O)c(=O)n(N2CCSCC2)c1=O` [I-203], the “Herbicidal effects index number, Echinochloa oryzicola” value in the experiment on Echinochloa oryzicola is reported as 10. Further, the “Herbicidal effects index number, Monochoria vaginalis” value in the experiment on Monochoria vaginalis is 10. For the same compound, the “herbicidal effect index, S. juncoides Rocxb.” value in the experiment with Scirpus juncoides Rocxb. was 10. In addition, the “herbicidal effect index, Amaranthus retroflexus” value in the experiment on A. retroflexus [1] was 7; in the experiment with A. retroflexus [3] it was 10. Moreover, the “herbicidal effect index, Echinochloa crus-galli” value with Echinochloa crus-galli [2] came out at 9; in the experiment with Echinochloa crus-galli [5], 6. In the experiment with Indian millet [4], the “herbicidal effect index, Abutilon theophrasti” value turned out to be 9.

`CCOc1ccc(-n2c(=O)c(C(=O)C3=C(O)CCCC3=O)nn(C)c2=O)cc1` [I-268]: the “Herbicidal effects index number, Echinochloa oryzicola” value with Echinochloa oryzicola was found to be 10. Moreover, the “Herbicidal effects index number, Monochoria vaginalis” value in the experiment with Monochoria vaginalis amounted to 10. Besides, the “herbicidal effect index, S. juncoides Rocxb.” value in the experiment with Scirpus juncoides Rocxb. is 10. Besides, the “herbicidal effect index, Amaranthus retroflexus” value in the experiment with A. retroflexus [1] and in the experiment on A. retroflexus [3] was 10 throughout. Also, the figures for the “herbicidal effect index, Abutilon theophrasti” value with Indian millet [6] and in the experiment with Indian millet [4] were 8 and 9, respectively. Also, the “herbicidal effect index, Echinochloa crus-galli” value with Echinochloa crus-galli [5] is 7.

`COc1ccc(-n2c(=O)c(C(=O)C3=C(O)CCCC3=O)nn(C)c2=O)nc1` [I-290]: in the experiment with Monochoria vaginalis, the “Herbicidal effects index number, Monochoria vaginalis” value is listed as 10. Besides, the “herbicidal effect index, S. juncoides Rocxb.” value in the experiment with Scirpus juncoides Rocxb. stood at 10. The “herbicidal effect index, Amaranthus retroflexus” value is reported as 8 in the experiment with A. retroflexus [1] and 10 with A. retroflexus [3]. Besides, the “herbicidal effect index, Abutilon theophrasti” value with Indian millet [6] was 10; with Indian millet [4], 9.

With `Cc1ccc(-n2c(=O)c(C(=O)C3=C(O)CCCC3=O)nn(C)c2=S)nc1` [I-291], the “Herbicidal effects index number, Monochoria vaginalis” value with Monochoria vaginalis is reported as 10. Also, the “herbicidal effect index, S. juncoides Rocxb.” value with Scirpus juncoides Rocxb. was 10. In addition, the “herbicidal effect index, Amaranthus retroflexus” value with A. retroflexus [1] came to 8; in the experiment with A. retroflexus [3], 10. Besides, the “herbicidal effect index, Abutilon theophrasti” value in the experiment with Indian millet [6] is recorded as 10; in the experiment with Indian millet [4], 9.

As to `Cc1cnc(-n2c(=O)c(C(=O)C3=C(O)CCCC3=O)nn(C)c2=O)cn1` [I-292], the “Herbicidal effects index number, Echinochloa oryzicola” value in the experiment on Echinochloa oryzicola came out at 10. Moreover, in the experiment with Monochoria vaginalis, the “Herbicidal effects index number, Monochoria vaginalis” value was found to be 10. For the same compound, the “herbicidal effect index, S. juncoides Rocxb.” value in the experiment with Scirpus juncoides Rocxb. is reported as 10. The “herbicidal effect index, Echinochloa crus-galli” value in the experiment with Echinochloa crus-galli [2] is given as 7; with Echinochloa crus-galli [5], 8. The “herbicidal effect index, Abutilon theophrasti” value with Indian millet [6] is listed as 9; in the experiment on Indian millet [4], 10. Further, the “herbicidal effect index, Amaranthus retroflexus” value with A. retroflexus [3] was 10.

In the case of `CSc1c(Cl)cc(-n2c(=O)c(C(=O)C3=C(O)CCCC3=O)nn(C)c2=O)cc1Cl` [I-300], in the experiment on Echinochloa oryzicola, the “Herbicidal effects index number, Echinochloa oryzicola” value was found to be 10. Besides, the “Herbicidal effects index number, Monochoria vaginalis” value with Monochoria vaginalis turned out to be 10. The “herbicidal effect index, S. juncoides Rocxb.” value in the experiment on Scirpus juncoides Rocxb. was found to be 10. The “herbicidal effect index, Amaranthus retroflexus” value in the experiment on A. retroflexus [1] and in the experiment with A. retroflexus [3] was 10 each time. The “herbicidal effect index, Abutilon theophrasti” value in the experiment with Indian millet [6] is listed as 10; in the experiment with Indian millet [4], 8. Besides, the “herbicidal effect index, Echinochloa crus-galli” value in the experiment with Echinochloa crus-galli [5] was 9.

On to `CC(C)Cn1c(=O)c(C(=O)C2=C(O)CCCC2=O)nn(-c2ccccn2)c1=O` [I-307], for which the “Herbicidal effects index number, Echinochloa oryzicola” value in the experiment with Echinochloa oryzicola worked out at 8. Besides, in the experiment with Monochoria vaginalis, the “Herbicidal effects index number, Monochoria vaginalis” value was found to be 9. In addition, in the experiment with Scirpus juncoides Rocxb., the “herbicidal effect index, S. juncoides Rocxb.” value is 8. The “herbicidal effect index, Amaranthus retroflexus” value is listed as 10 with A. retroflexus [1] and 9 with A. retroflexus [3]. The “herbicidal effect index, Echinochloa crus-galli” value with Echinochloa crus-galli [2] worked out at 7. Further, the “herbicidal effect index, Abutilon theophrasti” value in the experiment on Indian millet [6] stood at 9; in the experiment on Indian millet [4], 10.

Turning to `CCc1ccc(-n2c(=O)c(C(=O)C3=C(O)CCCC3=O)nn(C)c2=O)nc1` [I-462], the “Herbicidal effects index number, Monochoria vaginalis” value with Monochoria vaginalis was found to be 10. Moreover, in the experiment on Scirpus juncoides Rocxb., the “herbicidal effect index, S. juncoides Rocxb.” value was 10. In addition, the “herbicidal effect index, Amaranthus retroflexus” value in the experiment on A. retroflexus [1] was found to be 9; in the experiment with A. retroflexus [3] it was 10. In addition, the “herbicidal effect index, Abutilon theophrasti” value in the experiment with Indian millet [6] and in the experiment with Indian millet [4] was 10 each time.

Take `Cc1ccc(-n2c(=O)c(C(=O)O)nn(C)c2=O)nc1` [V-361]: the “Herbicidal effects index number, Monochoria vaginalis” value with Monochoria vaginalis came to 10. Besides, the “herbicidal effect index, S. juncoides Rocxb.” value in the experiment with Scirpus juncoides Rocxb. was found to be 10. The “herbicidal effect index, Amaranthus retroflexus” value in the experiment with A. retroflexus [1] is 8; with A. retroflexus [3], 10. Further, the “herbicidal effect index, Abutilon theophrasti” value in the experiment with Indian millet [6] is 10; with Indian millet [4], 9.
